Measurements reported in patent US8420657B2 (Novartis AG, priority 2008, dated 2013).

Legend:
GST-JAK2(808-1132) = biological target: T1, GST-JAK2(808-1132) (Homo sapiens, UniProt O60674); test: JAK2 kinase assay (Caliper mobility shift, LabChip 3000); type: biochemical
T1 construct: GST-JAK2(808-1132); purchased Invitrogen (Carlsbad, USA) #4288
Outline: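 Recombinant GST-JAK2(808-1132) kinase domain with FITC-labelled JAK3tide peptide substrate and ATP; 60 min at 30 °C, EDTA stop. Substrate/product ratio read by microfluidic mobility shift; compounds at 8 final concentrations, 10 to 0.003 μM.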

[1] = system: JAK1/JAK2-dependent nuclear translocation of STAT1-GFP in HT1080 fibrosarcoma cells; test: STAT1 nuclear translocation assay (Cellomics), IFN-γ stimulated HT1080 STAT1-GFP cells; type: cell-based
Description: The medium-throughput (96-well format) cellular automated fluorescence microscopy Cellomics assay can be routinely used to assess the functional activation of Janus Kinases (JAKs), based on the nuclear translocation of their substrate, Signal Transducer and Activator of Transcription (STAT). Nuclear translocation can be monitored either in HT1080 fibrosarcoma cells stably transfected with STAT1 fused to Green Fluorescence Protein (GFP) or in U-2 OS osteosarcoma cells stably transfected with STAT5 fused to Green Fluorescence Protein (GFP). Stimulation of HT1080 cells with interferon-γ (IFN-γ) results in JAK1/JAK2-dependent nuclear translocation of STAT1-GFP, whereas stimulation of U-2 OS cells with recombinant human erythropoietin (rhEpo) results in JAK2-dependent nuclear translocation of STAT5-GFP, both of which can be quantified using the Cellomics Cyto/NucTrans software package. This assay may be used to provide an assessment of the nuclear-cytoplasmic differential (NCD) of STAT-GFP using Hoechst dye to define the boundaries of the nucleus.
HT1080 fibrosarcoma cells may be obtained from ATCC and can be cultured in alpha Modified Eagle Medium with 10% FCS. Cells can be transfected with pEGFP-N2 STAT1 using Fugene 6 Transfection Reagent following the manufacturers' protocol. 24 hours after transfection the medium can be replaced and selected in 1 mg/ml Geneticin.
Compounds can be dissolved in DMSO to a final stock concentration of 10 mM and stored as aliquots at 4° C. Compounds may be pre-diluted in 100% DMSO at 10 mM, 3 mM 1 mM, 0.3 mM, 0.1 mM, 0.03 mM, 0.01 mM and 0.003 mM. Subsequently, compounds may be diluted in medium and added in 50 μl to the cells. The final compound concentrations tested may be 10 μM, 3 μM 1 μM, 0.3 μM, 0.1 μM, 0.03 μM, 0.01 μM and 0.003 μM and the final DMSO concentration can be 0.1%.
HT1080 STAT1-GFP cells may be seeded at a density of 10,000 cells per well in clear-bottom black 96-well Packard View-Plates™. 16-24 hours later, the cells can be treated for 2 hours with 100 ng/ml IFN-γ, washed twice in pre-warmed PBS and fixed in 200 μl of pre-warmed fixation solution (PBS, 3.7% Formaldehyde) for 10 minutes. The plates may be washed twice in 200 μl PBS and incubated, protected from light, in 100 μl of DNA-staining solution (PBS, 0.5 μg/ml Hoechst-33342) for 1 minute. The plates may then be washed once in PBS, and 200 μl PBS finally added per well. The plates, being finally covered with a black adhesive, may be either read directly or stored at 4° C. for later imaging. Where appropriate, the compounds may be added 30 min before stimulation with IFN-γ.
The plates can be read on a Cellomics® ArrayscanII automated fluorescence microscope plate reader equipped with a Mercury-Xenon white light illumination source and a Zeiss Axiovert inverted microscope, using the XF100 dichroic/emission filter cube and matching excitation filters, 10× magnification, and a 0.3 numerical aperture objective. Image acquisition and analysis can be performed using a customized protocol based on the ‘NuclearTranslocation’ Bioapplication. For each well, multiple images (fields) can be acquired until a minimum of 1000 cells are counted using two 2 channels: Channel 1 (Hoechst)=focus+nuclear mask, Channel 2 (GFP)=signal quantification in mask areas as outlined below. Nuclei may be first identified based on the Hoechst staining and a mask generated for each nucleus that then serves as a template to generate a circle (eroded inwards by 1 pixel) and a 3 pixel-wide collar-like ring (off-set outwards by 1 pixel), in which the nuclear and cytoplasmic intensity of GFP, respectively, are quantified in the corresponding channel. High content analysis yields numerous measurements per cell and the GFP intensity differential between the nuclear and the cytoplasmic masks may be chosen as a measure of sub-cellular STAT-GFP relocation. The resulting values may be averaged for all cells in the well to return a single measurement plus standard deviation. […]

[2] = Homo sapiens, HT-1080, STAT1 translocation pathway

T1 sequence (O60674 808-1132): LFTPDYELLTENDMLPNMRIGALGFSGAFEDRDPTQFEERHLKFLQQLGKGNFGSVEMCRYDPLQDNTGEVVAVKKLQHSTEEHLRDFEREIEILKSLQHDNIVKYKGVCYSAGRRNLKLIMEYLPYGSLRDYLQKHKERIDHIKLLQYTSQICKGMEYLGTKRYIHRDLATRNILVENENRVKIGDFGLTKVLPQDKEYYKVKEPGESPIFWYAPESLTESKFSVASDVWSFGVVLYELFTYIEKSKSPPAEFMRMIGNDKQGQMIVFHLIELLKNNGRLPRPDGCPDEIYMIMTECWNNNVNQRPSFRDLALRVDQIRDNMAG

CN(C)CCNC(=O)c1ccc(Nc2ncc3ccn(-c4ccc(S(C)(=O)=O)cc4)c3n2)cc1 [Example 40, N-(2-Dimethylamino-ethyl)-4-[7-(4-methanesulfonyl-phenyl)-7H-pyrrolo[2,3-d]pyrimidin-2-ylamino]-benzamide]
IC50 (GST-JAK2(808-1132)): < 3 nM | IC50 [1, 2]: 155 nM

O=C(c1ccc(Nc2ncc3ccn(-c4cc(F)c(CN5CCS(=O)(=O)CC5)c(F)c4)c3n2)cc1)N1CCOCC1 [Example 187, (4-{7-[4-(1,1-Dioxido-thiomorpholin-4-ylmethyl)-3,5-difluoro-phenyl]-7H-pyrrolo[2,3-d]pyrimidin-2-ylamino}-phenyl)-morpholin-4-yl-methanone]
IC50 (GST-JAK2(808-1132)): < 3 nM | IC50 [1, 2]: 55 nM

Cc1ccc(Nc2ncc3ccn(-c4ccc(CN5CCOCC5)cc4)c3n2)cc1 [Example 146, [7-(4-Morpholin-4-ylmethyl-phenyl)-7H-pyrrolo[2 3-d]pyrimidin-2-yl]-p-tolyl-amine]
IC50 (GST-JAK2(808-1132)): 30 nM | IC50 [1, 2]: 2510 nM

C[C@@H]1CN[C@@H](C)CN1c1ccc(Nc2ncc3ccn(-c4cc(F)c(CN5CCOCC5)c(F)c4)c3n2)cn1 (racemic) [Example 271, [7-(3,5-Difluoro-4-morpholin-4-ylmethyl-phenyl)-7H-pyrrolo[2,3-d]pyrimidin-2-yl]-[6-((2R,5S)-2,5-dimethyl-piperazin-1-yl)-pyridin-3-yl]-amine]
IC50 (GST-JAK2(808-1132)): 3.1 nM | IC50 [1, 2]: 65 nM

O=C(c1ccc(-n2ccc3cnc(Nc4ccc(F)cc4)nc32)cc1F)N1CCOCC1 [Example 59, {2-Fluoro-4-[2-(4-fluoro-phenylamino)-pyrrolo[2,3-d]pyrimidin-7-yl]-phenyl}-morpholin-4-yl-methanone]
IC50 (GST-JAK2(808-1132)): 6.5 nM | IC50 [1, 2]: 920 nM

CN1CCN(C(=O)c2ccc(Nc3ncc4ccn(-c5ccc(S(C)(=O)=O)cc5)c4n3)cc2Cl)CC1 [Example 94, {2-Chloro-4-[7-(4-methanesulfonyl-phenyl)-7H-pyrrolo[2,3-d]pyrimidin-2-ylamino]-phenyl}-(4-methyl-piperazin-1-yl)-methanone]
IC50 (GST-JAK2(808-1132)): 3.8 nM | IC50 [1, 2]: 259 nM

C[C@@H]1CN(c2ccc(Nc3ncc4ccn(-c5cc(F)c(CN6CCS(=O)(=O)CC6)c(F)c5)c4n3)cn2)C[C@H](C)N1 [Example 441, [6-(cis-3,5-Dimethyl-piperazin-1-yl)-pyridin-3-yl]-{7-[4-(1,1-dioxido-thiomorpholin-4-ylmethyl)-3,5-difluoro-phenyl]-7H-pyrrolo[2,3-d]pyrimidin-2-yl}-amine]
IC50 (GST-JAK2(808-1132)): ≤ 3 nM | IC50 [1, 2]: 45 nM

Cc1ccc(Nc2ncc3ccn(-c4cc(F)c(CN5CCOCC5)c(F)c4)c3n2)cc1Cl [Example 128, (3-Chloro-4-methyl-phenyl)-[7-(3,5-difluoro-4-morpholin-4-ylmethyl-phenyl)-7H-pyrrolo[2,3-d]pyrimidin-2-yl]-amine]
IC50 (GST-JAK2(808-1132)): 120 nM | IC50 [1, 2]: 3680 nM

Cc1ccc(Nc2ncc3ccn(-c4ccc(C(=O)N5CCS(=O)(=O)CC5)c(F)c4)c3n2)cc1C [Example 291, {4-[2-(3,4-Dimethyl-phenylamino)-pyrrolo[2,3-d]pyrimidin-7-yl]-2-fluoro-phenyl}-(1,1-dioxido-thiomorpholin-4-yl)-methanone]
IC50 (GST-JAK2(808-1132)): < 3 nM | IC50 [1, 2]: 54 nM

Cc1ccc(Nc2ncc3ccn(-c4ccc(C(=O)N5CCOCC5)c(C)c4)c3n2)cc1C [Example 294, {4-[2-(3,4-Dimethyl-phenylamino)-pyrrolo[2,3-d]pyrimidin-7-yl]-2-methyl-phenyl}-morpholin-4-yl-methanone]
IC50 (GST-JAK2(808-1132)): < 3 nM | IC50 [1, 2]: 415 nM

O=C(c1c(F)cc(-n2ccc3cnc(Nc4nccs4)nc32)cc1F)N1CCOCC1 [Example 246, {2,6-Difluoro-4-[2-(thiazol-2-ylamino)-pyrrolo[2,3-d]pyrimidin-7-yl]-phenyl}-morpholin-4-yl-methanone]
IC50 (GST-JAK2(808-1132)): 28 nM | IC50 [1, 2]: 4000 nM

O=C(c1c(F)cc(-n2ccc3cnc(Nc4ccncn4)nc32)cc1F)N1CCOCC1 [Example 218, {2,6-Difluoro-4-[2-(pyrimidin-4-ylamino)-pyrrolo[2,3-d]pyrimidin-7-yl]-phenyl}-morpholin-4-yl-methanone]
IC50 (GST-JAK2(808-1132)): 1050 nM | IC50 [1, 2]: 10000 nM

Cc1cc(Nc2ncc3ccn(-c4cc(F)c(C(=O)N5CCOCC5)c(F)c4)c3n2)ccc1F [Example 89, {2,6-Difluoro-4-[2-(4-fluoro-3-methyl-phenylamino)-pyrrolo[2,3-d]pyrimidin-7-yl]-phenyl}-morpholin-4-yl-methanone]
IC50 (GST-JAK2(808-1132)): < 3 nM | IC50 ([1]; STAT1 translocation pathway): 410 nM

CN1CCN(C(=O)c2cc(Nc3ncc4ccn(-c5ccc(S(C)(=O)=O)cc5)c4n3)ccc2F)CC1 [Example 76, {2-Fluoro-5-[7-(4-methanesulfonyl-phenyl)-7H-pyrrolo[2,3-d]pyrimidin-2-ylamino]-phenyl}-(4-methyl-piperazin-1-yl)-methanone]
IC50 (GST-JAK2(808-1132)): 38 nM | IC50 [1, 2]: 934 nM

Cc1ccc(Nc2ncc3ccn(-c4cc(F)c(CN5CCOCC5)c(F)c4)c3n2)cc1CN1CCNC(=O)C1 [Example 334, 4-{5-[7-(3,5-Difluoro-4-morpholin-4-ylmethyl-phenyl)-7H-pyrrolo[2,3-d]pyrimidin-2-ylamino]-2-methyl-benzyl}-piperazin-2-one]
IC50 (GST-JAK2(808-1132)): ≤ 3 nM | IC50 [1, 2]: 260 nM

Cc1ccc(Nc2ncc3ccn(-c4ccc(C[S+](C)[O-])cc4)c3n2)cc1 (stereo not drawn) [Example 139, [7-(4-Methanesulfinylmethyl-phenyl)-7H-pyrrolo[2,3-d]pyrimidin-2-yl]-p-tolyl-amine]
IC50 (GST-JAK2(808-1132)): 11 nM | IC50 [1, 2]: 630 nM

CN1CCN(C(=O)c2ccc(Nc3ncc4ccn(-c5ccc(CN6CCOCC6)c(F)c5)c4n3)cc2F)CC1 [Example 158, {2-Fluoro-4-[7-(3-fluoro-4-morpholin-4-ylmethyl-phenyl)-7H-pyrrolo[2,3-d]pyrimidin-2-ylamino]-phenyl}-(4-methyl-piperazin-1-yl)-methanone]
IC50 (GST-JAK2(808-1132)): 9.4 nM | IC50 [1, 2]: 265 nM

Cc1cc(Nc2ncc3ccn(-c4ccc(S(C)(=O)=O)cc4)c3n2)ccc1C(=O)N1CCOCC1 [Example 74, {4-[7-(4-Methanesulfonyl-phenyl)-7H-pyrrolo[2,3-d]pyrimidin-2-ylamino]-2-methyl-phenyl}-morpholin-4-yl-methanone]
IC50 (GST-JAK2(808-1132)): < 3 nM | IC50 [1, 2]: 75.5 nM

Cc1ccc(Nc2ncc3ccn(-c4cc(F)c(CN5CCOCC5)c(F)c4)c3n2)cc1CN1CCC2(CCN(C)C2)C1 (stereo not drawn) [Example 450, [7-(3,5-Difluoro-4-morpholin-4-ylmethyl-phenyl)-7H-pyrrolo[2,3-d]pyrimidin-2-yl]-[4-methyl-3-(7-methyl-2,7-diaza-spiro[4.4]non-2-ylmethyl)-phenyl]-amine]
IC50 (GST-JAK2(808-1132)): ≤ 3 nM

CC(C)(C)OC(=O)N1CCN(Cc2ccc(Nc3ncc4ccn(-c5ccc(S(C)(=O)=O)cc5)c4n3)cc2)CC1 [Example 45, 4-{4-[7-(4-Methanesulfonyl-phenyl)-7H-pyrrolo[2,3-d]pyrimidin-2-ylamino]-benzyl}-piperazine-1-carboxylic acid tert-butyl ester]
IC50 (GST-JAK2(808-1132)): 6.1 nM

COc1ccc(Nc2ncc3ccn(-c4ccc(S(C)(=O)=O)cc4)c3n2)cc1OCCN(C)C [Example 26, [3-(2-Dimethylamino-ethoxy)-4-methoxy-phenyl]-[7-(4-methanesulfonyl-phenyl)-7H-pyrrolo[2,3-d]pyrimidin-2-yl]-amine]
IC50 (GST-JAK2(808-1132)): < 3 nM
